Assay results reported in PMC12155096 (International Journal of Molecular Sciences, 2025).
Like-named read-outs stand apart in the source and are kept apart here.

Legend:
[1] = target: Photinus pyralis (firefly) luciferase (Photinus pyralis, UniProt P08659); assay: biochemical; type: biochemical
human CYP1A2 = target: T1, human CYP1A2 (Homo sapiens, UniProt P05177)
T1 sequence (P05177 1-516): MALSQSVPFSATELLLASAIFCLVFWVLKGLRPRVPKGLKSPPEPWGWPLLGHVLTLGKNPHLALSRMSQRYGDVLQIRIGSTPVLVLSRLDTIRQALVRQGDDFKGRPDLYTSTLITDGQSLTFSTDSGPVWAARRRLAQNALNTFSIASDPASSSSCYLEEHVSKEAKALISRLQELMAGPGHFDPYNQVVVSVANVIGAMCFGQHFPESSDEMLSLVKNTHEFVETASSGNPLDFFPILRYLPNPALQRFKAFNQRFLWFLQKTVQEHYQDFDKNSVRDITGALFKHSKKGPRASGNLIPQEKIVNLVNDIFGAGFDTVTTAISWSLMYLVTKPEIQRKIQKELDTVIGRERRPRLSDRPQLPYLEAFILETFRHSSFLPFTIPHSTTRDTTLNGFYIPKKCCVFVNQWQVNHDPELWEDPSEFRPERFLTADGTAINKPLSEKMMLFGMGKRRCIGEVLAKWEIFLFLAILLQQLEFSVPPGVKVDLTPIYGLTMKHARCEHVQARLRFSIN

CYP3A4 = CYP3A4 (Homo sapiens, UniProt P08684)
Chain of CYP3A4 (P08684 whole entry): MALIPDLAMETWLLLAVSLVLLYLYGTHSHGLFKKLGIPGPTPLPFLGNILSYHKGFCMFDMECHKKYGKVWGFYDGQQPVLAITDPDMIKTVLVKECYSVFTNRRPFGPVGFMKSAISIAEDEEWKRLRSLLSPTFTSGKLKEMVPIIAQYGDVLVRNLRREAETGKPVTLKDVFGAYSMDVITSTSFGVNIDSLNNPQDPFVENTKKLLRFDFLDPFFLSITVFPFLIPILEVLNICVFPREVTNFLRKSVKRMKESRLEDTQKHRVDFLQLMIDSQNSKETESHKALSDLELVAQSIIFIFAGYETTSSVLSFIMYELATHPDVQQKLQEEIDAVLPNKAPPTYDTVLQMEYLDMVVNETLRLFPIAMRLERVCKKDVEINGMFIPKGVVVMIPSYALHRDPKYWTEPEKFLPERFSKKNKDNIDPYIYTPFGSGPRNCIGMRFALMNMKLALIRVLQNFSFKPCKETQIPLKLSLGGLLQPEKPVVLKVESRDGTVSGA

human CYP2C9 = human CYP2C9 (Homo sapiens, UniProt P11712)
Chain of human CYP2C9 (P11712 whole entry): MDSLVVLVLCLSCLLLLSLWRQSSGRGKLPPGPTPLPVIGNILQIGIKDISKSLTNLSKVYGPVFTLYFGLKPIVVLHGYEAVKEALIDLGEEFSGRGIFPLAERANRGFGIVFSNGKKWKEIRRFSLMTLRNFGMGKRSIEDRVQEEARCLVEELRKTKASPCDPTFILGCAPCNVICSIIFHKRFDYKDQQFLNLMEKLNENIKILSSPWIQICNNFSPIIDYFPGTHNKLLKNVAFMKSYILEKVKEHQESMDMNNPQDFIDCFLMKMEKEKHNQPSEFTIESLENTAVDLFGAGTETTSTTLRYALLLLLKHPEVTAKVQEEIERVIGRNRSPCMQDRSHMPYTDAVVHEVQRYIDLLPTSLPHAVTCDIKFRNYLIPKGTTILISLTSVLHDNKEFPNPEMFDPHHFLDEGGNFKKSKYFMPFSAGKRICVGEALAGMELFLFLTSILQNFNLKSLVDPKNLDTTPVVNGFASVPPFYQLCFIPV

human CYP2C19 = human CYP2C19 (Homo sapiens, UniProt P33261)
Chain of human CYP2C19 (P33261 whole entry): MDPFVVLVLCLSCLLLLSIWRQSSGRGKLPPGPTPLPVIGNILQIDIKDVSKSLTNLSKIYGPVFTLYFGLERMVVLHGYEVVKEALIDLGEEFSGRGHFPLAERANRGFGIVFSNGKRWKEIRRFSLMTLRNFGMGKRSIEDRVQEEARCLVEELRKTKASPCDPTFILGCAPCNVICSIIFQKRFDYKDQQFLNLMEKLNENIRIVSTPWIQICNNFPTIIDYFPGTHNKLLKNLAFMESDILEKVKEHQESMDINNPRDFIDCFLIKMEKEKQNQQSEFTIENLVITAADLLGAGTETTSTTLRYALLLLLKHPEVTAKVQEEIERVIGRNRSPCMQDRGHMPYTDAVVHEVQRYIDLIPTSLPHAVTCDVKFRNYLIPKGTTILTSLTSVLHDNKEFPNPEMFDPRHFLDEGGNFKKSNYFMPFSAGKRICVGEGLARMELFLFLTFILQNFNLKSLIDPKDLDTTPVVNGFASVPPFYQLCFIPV

human CYP2D6 = human CYP2D6 (Homo sapiens, UniProt P10635)
Chain of human CYP2D6 (P10635 whole entry): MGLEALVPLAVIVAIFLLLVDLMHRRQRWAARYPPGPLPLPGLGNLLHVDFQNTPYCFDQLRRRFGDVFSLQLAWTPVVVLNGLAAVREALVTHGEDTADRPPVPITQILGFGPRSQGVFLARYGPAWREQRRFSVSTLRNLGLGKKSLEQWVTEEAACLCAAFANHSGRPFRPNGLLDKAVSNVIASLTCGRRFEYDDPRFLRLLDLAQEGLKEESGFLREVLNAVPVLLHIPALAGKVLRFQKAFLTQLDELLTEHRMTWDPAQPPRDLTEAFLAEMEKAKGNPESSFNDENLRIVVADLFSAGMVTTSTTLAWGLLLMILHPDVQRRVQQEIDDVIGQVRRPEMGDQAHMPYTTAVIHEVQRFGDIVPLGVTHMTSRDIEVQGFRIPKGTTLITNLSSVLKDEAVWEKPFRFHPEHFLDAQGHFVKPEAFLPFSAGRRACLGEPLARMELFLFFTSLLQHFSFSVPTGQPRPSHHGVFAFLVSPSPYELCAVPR

[2] = read-out: Luciferase IC50 (half-maximal inhibitory concentration)

Chain of Photinus pyralis (firefly) luciferase (P08659 whole entry): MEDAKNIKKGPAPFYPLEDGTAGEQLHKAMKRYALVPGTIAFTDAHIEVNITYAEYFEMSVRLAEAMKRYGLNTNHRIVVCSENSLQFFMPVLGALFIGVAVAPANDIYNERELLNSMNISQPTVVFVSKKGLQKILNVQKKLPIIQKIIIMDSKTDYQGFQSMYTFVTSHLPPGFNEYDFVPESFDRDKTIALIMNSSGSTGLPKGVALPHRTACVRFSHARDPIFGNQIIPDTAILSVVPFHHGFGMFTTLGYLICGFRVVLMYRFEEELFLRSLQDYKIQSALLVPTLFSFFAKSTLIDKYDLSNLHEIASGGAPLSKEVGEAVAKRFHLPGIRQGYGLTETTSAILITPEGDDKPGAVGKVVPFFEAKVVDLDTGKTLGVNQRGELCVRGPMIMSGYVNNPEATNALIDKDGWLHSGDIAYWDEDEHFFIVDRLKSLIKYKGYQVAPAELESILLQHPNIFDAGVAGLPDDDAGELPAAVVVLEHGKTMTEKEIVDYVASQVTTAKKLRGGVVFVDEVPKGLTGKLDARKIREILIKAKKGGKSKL

Compound	Luciferase IC50 (half-maximal inhibitory concentration) [1]	IC50 (human CYP1A2)	IC50 (human CYP2C19)	IC50 (CYP3A4)	IC50 (human CYP2C9)	IC50 (human CYP2D6)	also measured
CCOC(=O)c1ccc(OC(=O)CCCCCN=C(N)N)cc1.CS(=O)(=O)O [Gabexate mesilate]	Inactive	20.1 µM	10.3 µM	–	–	–	CYP1A2 Efficacy (human CYP1A2): 20.14 ± 4.79 (-49 ± 20) %; AC50 (CYP3A4): 21.2 µM; CYP3A4 IC50 (half-maximal inhibitory concentration) (CYP3A4): 21.25 ± 8.41 (37 ± 5) µM; AC50 (human CYP2C9): 10.3 µM; CYP2C9 Efficacy (human CYP2C9): 10.33 ± 4.77 (82 ± 30) %; CYP2C19 Efficacy (human CYP2C19): 10.33 ± 4.77 (-82 ± 30) %; AC50 (human CYP2D6): 0.27 µM; CYP2D6 Efficacy (human CYP2D6): 0.27 ± 0.04 (-102 ± 4) %
CC[C@H]1C[C@@H]2C[C@H]3c4[nH]c5ccc(OC)cc5c4CCN(C2)[C@@H]13.Cl [Ibogaine hydrochloride]	Inactive	61.5 µM	83.1 µM	32.5 µM	–	–	CYP2C9 Efficacy (human CYP2C9): 44.07 ± 15.72 (-45 ± 10) %; CYP2D6 Efficacy (human CYP2D6): 0.76 ± 0.1 (-105 ± 7) %
CC(C)C[C@H]1[C@@H](c2ccccc2)OC(=O)N1CCCN1CCCCCC1.Cl [Ipenoxazone hydrochloride]	–	–	2.3 µM	0.88 µM	–	–	Luciferase IC50 [1]: Inactive; CYP1A2 IC50 (human CYP1A2): Inactive; CYP2C9 IC50 (human CYP2C9): Inactive; CYP2D6 Efficacy (human CYP2D6): 0.44 ± 0.1 (-105 ± 4) %
Cc1oc(=O)oc1COC(=O)[C@@H]1N2C(=O)[C@@H](NC(=O)[C@H](N)c3ccccc3)[C@H]2SC1(C)C.Cl [Lenampicillin hydrochloride]	Inactive	–	–	0.62 µM	41.3 µM	–	CYP1A2 IC50 (half-maximal inhibitory concentration) (human CYP1A2): Inactive; CYP2C19 IC50 (half-maximal inhibitory concentration) (human CYP2C19): Inactive; CYP2D6 IC50 (half-maximal inhibitory concentration) (human CYP2D6): Inactive
O=S(=O)([O-])C(F)(F)C(F)(F)C(F)(F)C(F)(F)C(F)(F)C(F)(F)C(F)(F)C(F)(F)F.[Li+] [Lithium perfluorooctane sulfonate]	Inactive	–	86.1 µM	–	0.48 µM	–	CYP1A2 IC50 (half-maximal inhibitory concentration) (human CYP1A2): Inactive; CYP3A4 IC50 (half-maximal inhibitory concentration) (CYP3A4): Inactive; CYP2D6 IC50 (half-maximal inhibitory concentration) (human CYP2D6): Inactive
CN1[C@@H]2CCC(C)(C)[C@H]1C[C@H](OC(=O)C(O)(c1cccs1)c1cccs1)C2 [Mazaticol]	Inactive	–	–	0.22 µM	–	14.4 µM	CYP1A2 IC50 (half-maximal inhibitory concentration) (human CYP1A2): Inactive; CYP2C9 IC50 (half-maximal inhibitory concentration) (human CYP2C9): Inactive; CYP2C19 IC50 (half-maximal inhibitory concentration) (human CYP2C19): Inactive
CCOC(=O)c1c(C)n(C)c2ccc(O)cc12 [Mecarbinate]	Inactive	0.54 µM	7.23 µM	5.97 µM	12.9 µM	17.9 µM	–
[Cl][Hg][Cl] [Mercuric chloride]	–	5.66 µM	0.77 µM	2.25 µM	0.47 µM	1.61 µM	IC50 ([1]; read-out: Luciferase IC50): 11 µM
CC(=O)[O-].CC(=O)[O-].[Hg+2] [Mercury(II) acetate]	–	4.19 µM	0.91 µM	2.86 µM	0.5 µM	1.08 µM	Luciferase Efficacy (in parenthesis) [1]: 6.84 ± 0.45 (-85 ± 7) %; IC50 [1, 2]: 6.84 µM; CYP1A2 Efficacy (in parenthesis) (human CYP1A2): 4.19 ± 0.75 (-100 ± 9) %; CYP3A4 Efficacy (in parenthesis) (CYP3A4): 2.86 ± 0.53 (-93 ± 1) %; CYP2C9 Efficacy (in parenthesis) (human CYP2C9): 0.5 ± 0.06 (-104 ± 2) %; CYP2C19 Efficacy (in parenthesis) (human CYP2C19): 0.91 ± 0.47 (-137 ± 5) %; CYP2D6 Efficacy (in parenthesis) (human CYP2D6): 1.08 ± 0.07 (-72 ± 4) %
[I][Hg][I] [Mercury(II) iodide]	–	3.7 µM	1.04 µM	2.53 µM	0.54 µM	1.67 µM	IC50 ([1]; read-out: Luciferase IC50): 5.25 µM
COc1cc(Cl)ccc1Oc1ccc(Cl)cc1Cl [Methyl triclosan]	–	15.1 µM	0.72 µM	70.2 µM	12 µM	–	IC50 ([1]; read-out: Luciferase IC50): 48.9 µM; CYP2D6 IC50 (human CYP2D6): Inactive
COC(=O)c1cncn1C(C)c1ccccc1.Cl (centres unmarked) [Metomidate hydrochloride]	Inactive	–	4.05 µM	0.25 µM	34 µM	5.65 µM	CYP1A2 IC50 (half-maximal inhibitory concentration) (human CYP1A2): Inactive
CCCN(CCC)CCc1c[nH]c2ccccc12.Cl [N,N-Dipropyltryptamine hydrochloride]	–	20.8 µM	65.9 µM	–	–	0.31 µM	Luciferase IC50 [1]: Inactive; CYP3A4 IC50 (CYP3A4): Inactive; CYP2C9 IC50 (human CYP2C9): Inactive
Cc1ccc([N+](=O)[O-])[c]2c1[O][Hg]2 [Nitromersol]	–	4.36 µM	1.28 µM	8.08 µM	0.87 µM	0.78 µM	Luciferase Efficacy (in parenthesis) [1]: 12.48 ± 4.81 (-100 ± 9) %; IC50 [1, 2]: 12.5 µM; CYP1A2 Efficacy (in parenthesis) (human CYP1A2): 4.36 ± 1.13 (-86 ± 7) %; CYP3A4 Efficacy (in parenthesis) (CYP3A4): 8.08 ± 0.55 (-86 ± 6) %; CYP2C9 Efficacy (in parenthesis) (human CYP2C9): 0.87 ± 0 (-104 ± 2) %; CYP2C19 Efficacy (in parenthesis) (human CYP2C19): 1.28 ± 0.79 (-139 ± 25) %; CYP2D6 Efficacy (in parenthesis) (human CYP2D6): 0.78 ± 0.09 (-101 ± 2) %
CN1CCN(C2Cc3ccccc3Sc3ccc(Cl)cc32)CC1.O=C(O)/C=C\C(=O)O (centres unmarked) [Octoclothepine maleate]	–	28.3 µM	11.5 µM	2.28 µM	30.6 µM	0.26 µM	Luciferase IC50 [1]: Inactive
O=S(=O)([O-])C(F)(F)C(F)(F)C(F)(F)C(F)(F)C(F)(F)C(F)(F)C(F)(F)C(F)(F)F.[K+] [PFOS-K]	Inactive	–	39.6 µM	–	0.61 µM	–	CYP1A2 IC50 (half-maximal inhibitory concentration) (human CYP1A2): Inactive; CYP3A4 IC50 (half-maximal inhibitory concentration) (CYP3A4): Inactive; CYP2D6 IC50 (half-maximal inhibitory concentration) (human CYP2D6): Inactive
O=S(=O)(O)C(F)(F)C(F)(F)C(F)(F)C(F)(F)C(F)(F)C(F)(F)C(F)(F)C(F)(F)F [PFOS]	–	32.3 µM	23.4 µM	80 µM	0.51 µM	28.4 µM	IC50 [1, 2]: 71.3 µM
OC(c1ccc(Cl)cc1)(c1ccc(Cl)cc1)c1cccnc1 [Parinol]	Inactive	38.5 µM	0.08 µM	2.75 µM	0.4 µM	14.2 µM	CYP1A2 Efficacy (in parenthesis) (human CYP1A2): 38.47 ± 2.51 (-60 ± 13) %; CYP3A4 Efficacy (in parenthesis) (CYP3A4): 2.75 ± 0.47 (-69 ± 3) %; CYP2C9 Efficacy (in parenthesis) (human CYP2C9): 0.4 ± 0.05 (-109 ± 9) %; CYP2C19 Efficacy (in parenthesis) (human CYP2C19): 0.08 ± 0.01 (-151 ± 12) %; CYP2D6 Efficacy (in parenthesis) (human CYP2D6): 14.17 ± 5.05 (-105 ± 7) %
CO/C=C(/C(=O)OC)c1ccccc1COc1cccc(C(F)(F)F)n1 [Picoxystrobin]	Inactive	32.1 µM	0.99 µM	–	38.4 µM	38.4 µM	AC50 (human CYP1A2): 32.1 µM; AC50 (CYP3A4): 2.32 µM; CYP3A4 IC50 (half-maximal inhibitory concentration) (CYP3A4): 2.32 ± 0.75 (38 ± 1) µM; AC50 (human CYP2C9): 38.4 µM; AC50 (human CYP2C19): 0.99 µM; AC50 (human CYP2D6): 38.4 µM
COc1cc2c(cc1OC)C(C(C(=O)N(CCc1ccc(OC)c(OC)c1OC)CCc1ccc(OC)c(OC)c1OC)c1ccccc1)=NCC2.Cl (centres unmarked) [Pinokalant hydrochloride]	Inactive	37.3 µM	19.6 µM	0.57 µM	–	–	CYP2C9 Efficacy (human CYP2C9): 11.86 ± 0.77 (-103 ± 7) %; CYP2D6 Efficacy (human CYP2D6): 9.34 ± 4.19 (-64 ± 10) %
CC(=O)/C=C/c1ccc2c(c1)OCO2 [Piperonal acetone]	–	0.25 µM	14.5 µM	4.65 µM	–	–	IC50 [1, 2]: 40.3 µM; CYP2C9 Efficacy (human CYP2C9): 8.04 ± 0.92 (-118 ± 10) %; CYP2D6 Efficacy (human CYP2D6): 31 ± 5.28 (-103 ± 9) %
CC(=O)CCc1ccc2c(c1)OCO2 [Piperonyl acetone]	Inactive	0.75 µM	29.9 µM	18.5 µM	–	–	CYP2C9 Efficacy (human CYP2C9): 22.26 ± 9.54 (-102 ± 10) %; CYP2D6 Efficacy (human CYP2D6): 44.96 ± 16.37 (-42 ± 9) %
O=C(NCc1cccnc1)Nc1ccc([N+](=O)[O-])cc1 [Pyrinuron]	Inactive	15.5 µM	3.28 µM	0.93 µM	5.43 µM	44.8 µM	CYP1A2 Efficacy (in parenthesis) (human CYP1A2): 15.45 ± 2.63 (-100 ± 0) %; CYP3A4 Efficacy (in parenthesis) (CYP3A4): 0.93 ± 0.12 (-76 ± 5) %; CYP2C9 Efficacy (in parenthesis) (human CYP2C9): 5.43 ± 0.35 (-105 ± 9) %; CYP2C19 Efficacy (in parenthesis) (human CYP2C19): 3.28 ± 1.56 (-135 ± 13) %; CYP2D6 Efficacy (in parenthesis) (human CYP2D6): 44.8 ± 15.98 (-64 ± 3) %
C[C@@H]1CN(CCCn2c3ccccc3c3ccccc32)C[C@H](C)N1.Cl.Cl [Rimcazole dihydrochloride]	–	10.6 µM	–	1.84 µM	–	–	Luciferase IC50 [1]: Inactive; CYP2C9 IC50 (human CYP2C9): Inactive; CYP2C19 IC50 (human CYP2C19): Inactive; CYP2D6 Efficacy (human CYP2D6): 0.4 ± 0.03 (-102 ± 4) %
